Assay results reported in patent US20110053916A1 (Vertex Pharmaceuticals Incorporated, priority 2009, published 2011).

Experiments:
PknB = target: T1, PknB (Mycobacterium tuberculosis, UniProt P9WI81); assay: biochemical; parameters: species or system M. tuberculosis; details: 3 nM PknB, 6 uM GarA, 3 μM ATP, 30 min, competitive tight-binding fit, several symbols in a cell = repeat determinations; for Ki: read-out: Ki Values
T1 construct: made in house

[1] = test system: Mycobacterium tuberculosis H37Ra; assay: Mycobacterium tuberculosis growth inhibition assay (microtiter dilution, resazurin reduction); format: cell-based; details: 7H9 broth, 9 days + 24 h resazurin, lowest concentration inhibiting resazurin reduction by >70%, several symbols in a cell = repeat determinations
Experimental: Compounds were screened for their ability to inhibit the growth of Mycobacterium tuberculosis H37Ra using a standard microtiter dilution method with reduction of the dye resazurin as an indicator of growth. The growth assay was carried out in standard Mycobacterium liquid growth medium, 7H9Broth (BD Biosciences, Franklin Lakes, N.J.) supplemented with 10% ADC enrichment (BD Biosciences, Franklin Lakes, N.J.). The medium was inoculate with ˜1×10^6 cells/milliliter of Mycobacterium tuberculosis H37Ra grown on a the surface of a growth medium solid medium (7H11 agar [BD Biosciences, Franklin Lakes, N.J.] supplemented with 10% OADC enrichment [BD Biosciences, Franklin Lakes, N.J.]).
Two-fold serial dilutions (either 7 or 11-step series) of test compounds in DMSO were dispensed into 96-well assay plates (sterile, black sided, clear bottom wells) in a volume of 1 microliter. One microliter of DMSO was dispensed into a control well at the end of each series. One-hundred microliters of the bacterial cell suspension in growth medium was dispensed into each test well containing a DSMO solution of compound. The assay plates were covered with a fitted lid and incubated at 37° C. in a humidified chamber for 9 days. On the ninth day 30 microliters of a 0.01% solution of resazurin (Sigma Chemical Co., St. Louis, Mo.) in distilled water was added to each well and the baseline fluorescence of resazurin was determined by measuring well fluorescence at an excitation wavelength of 492 nm and an emission wavelength of 595 nm on a Spectrafluor Plus (Tecan, Durham, N.C.) instrument. The assay plates were returned to the incubation chamber for 24 hours. After 24 hours, the fluorescence of the wells (resulting from the reduction of resazurin dye) was measured at an excitation wavelength of 492 nm and an emission wavelength of 595 nm on the Spectrafluor Plus instrument. The minimum inhibitory concentration (MIC) was called as the lowest concentration of compound that inhibited the reduction of resazurin by >70%, as compared to the DMSO (untreated) control wells. MIC values are represented as the following values: • A* <1.6 μM • A 1.6 μM<12.5 μM • B** 12.5 μM-25.0 μM • B* 25.0 μM-50.0 μM • B 50.0 μM-100.0 μM • C >100.0 μM

T1 sequence (P9WI81 whole entry): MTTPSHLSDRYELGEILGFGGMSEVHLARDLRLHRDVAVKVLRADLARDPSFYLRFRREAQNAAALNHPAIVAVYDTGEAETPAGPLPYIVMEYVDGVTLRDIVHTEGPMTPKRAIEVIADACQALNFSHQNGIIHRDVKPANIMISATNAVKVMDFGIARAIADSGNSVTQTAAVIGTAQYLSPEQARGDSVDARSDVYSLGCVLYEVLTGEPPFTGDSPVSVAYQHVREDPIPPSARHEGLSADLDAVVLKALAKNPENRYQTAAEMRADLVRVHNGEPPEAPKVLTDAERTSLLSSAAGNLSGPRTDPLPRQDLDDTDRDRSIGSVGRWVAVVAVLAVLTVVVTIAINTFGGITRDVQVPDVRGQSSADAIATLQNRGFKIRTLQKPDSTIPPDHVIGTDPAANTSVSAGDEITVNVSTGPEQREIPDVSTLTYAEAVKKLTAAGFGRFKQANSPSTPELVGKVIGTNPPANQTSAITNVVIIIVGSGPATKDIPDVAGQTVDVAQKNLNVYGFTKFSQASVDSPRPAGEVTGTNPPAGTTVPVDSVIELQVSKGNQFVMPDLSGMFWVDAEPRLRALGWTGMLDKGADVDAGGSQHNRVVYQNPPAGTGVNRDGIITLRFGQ

Row | SMILES | Ki (PknB) [nM] | MIC values [1] | Ki Values (PknB)
1 | C#Cc1c(C)nc(-c2ccc(S(=O)(=O)NC(C)(C)C)s2)nc1Nc1cc(C2CC2)[nH]n1 [Compound 268, 5-[4-[(5-cyclopropyl-1H-pyrazol-3-yl)amino]-5-ethynyl-6-methyl-pyrimidin-2-yl]-N-tert-butyl-thiophene-2-sulfonamide] | 10 to 50 | B++ | 
2 | COc1cc(Nc2cc(C3CC3)n[nH]2)nc(-c2ccc(S(N)(=O)=O)s2)n1 [Compound 293, 5-[4-[(5-cyclopropyl-2H-pyrazol-3-yl)amino]-6-methoxy-pyrimidin-2-yl]thiophene-2-sulfonamide] | 100 to 500 | B++ | 
3 | NS(=O)(=O)c1ccc(Nc2nccc(Nc3cc(C4CC4)[nH]n3)n2)cc1 [Compound 12, 4-(4-(5-cyclopropyl-1H-pyrazol-3-ylamino)pyrimidin-2-ylamino)benzene sulfonamide] | 1 to 10 | B+ | 
4 | O=C(O)c1cccc(Nc2nccc(Nc3cc(C4CC4)n[nH]3)n2)c1 [Compound 63, 3-[[4-[(5-cyclopropyl-2H-pyrazol-3-yl)amino]pyrimidin-2-yl]amino]benzoic acid] | > 4000 | B+ | 
5 | CC(=O)c1cccc(-c2nccc(Nc3cc(C4CC4)[nH]n3)n2)c1 [Compound 317, 1-[3-[4-[(5-cyclopropyl-1H-pyrazol-3-yl)amino]pyrimidin-2-yl]phenyl]ethanone] | 10 to 50 | B+ | 
6 | O=S(=O)(NCCO)c1ccc(-c2ncc(Cl)c(Nc3cc(C4CC4)[nH]n3)n2)s1 [Compound 86, 5-[5-chloro-4-[(5-cyclopropyl-1H-pyrazol-3-yl)amino]-pyrimidin-2-yl]-N-(2-hydroxyethyl)thiophene-2-sulfonamide] | 1 to 10 | B++ | 
7 | CS(=O)(=O)c1ccc(Nc2nccc(Nc3cc(C4CC4)[nH]n3)n2)cc1 [Compound 94, N′-(5-cyclopropyl-2H-pyrazol-3-yl)-N-(4-methylsulfonylphenyl)-pyrimidine-2,4-diamine] | 1 to 10 | B++, B+ | 
8 | OCc1cnc(-c2ccccc2)nc1Nc1cc(C2CC2)n[nH]1 [Compound 123, (4-(5-cyclopropyl-1H-pyrazol-3-ylamino)-2-phenylpyrimidin-5-yl)methanol] | 100 to 500 | B, C | 
9 | CC(=O)c1ccc(-c2nccc(Nc3cc(C4CC4)[nH]n3)n2)cc1 [Compound 308, 1-[4-[4-[(5-cyclopropyl-1H-pyrazol-3-yl)amino]pyrimidin-2-yl]phenyl]ethanone] | 10 to 50 | B+ | 
10 | Cc1cnc(-c2ccc(Cl)c(C(N)=O)c2)nc1Nc1cc(C2CC2)[nH]n1 [Compound 32, 2-chloro-5-[4-[(5-cyclopropyl-1H-pyrazol-3-yl)amino]-5-methyl-pyrimidin-2-yl]-benzamide] | 50 to 100 | B+ | 
11 | CC(C#N)c1ccc(-c2ncc(Cl)c(Nc3cc(C4CC4)[nH]n3)n2)s1 (centres unmarked) [Compound 226, 2-[5-[5-chloro-4-[(5-cyclopropyl-1H-pyrazol-3-yl)amino]-pyrimidin-2-yl]-2-thienyl]propanenitrile] | 10 to 50 | B++ | 
12 | CC(=O)OC/C=C/c1cnc(-c2ccccc2)nc1Nc1cc(C2CC2)[nH]n1 [Compound 81, (E)-3-(4-(5-cyclopropyl-1H-pyrazol-3-ylamino)-2-phenylpyrimidin-5-yl)allyl acetate] | 100 to 500 | B++, B+ | 
13 | C#Cc1cnc(-c2ccccc2)nc1Nc1cc(C2CC2)[nH]n1 [Compound 14, N-(5-cyclopropyl-1H-pyrazol-3-yl)-5-ethynyl-2-phenylpyrimidin-4-amine] |  | B+, B | A*, A
14 | C#Cc1c(C)nc(-c2ccc(S(N)(=O)=O)s2)nc1Nc1cc(C2CC2)[nH]n1 [Compound 267, 5-(4-(3-cyclopropyl-1H-pyrazol-5-ylamino)-5-ethynyl-6-methylpyrimidin-2-yl)thiophene-2-sulfonamide] | 1 to 10 | A+, A | 
15 | C#Cc1cnc(-c2ccc(C(C)C#N)s2)nc1Nc1cc(C2CC2)[nH]n1 (centres unmarked) [Compound 227, 2-[5-[4-[(5-cyclopropyl-1H-pyrazol-3-yl)amino]-5-ethynyl-pyrimidin-2-yl]-2-thienyl]propanenitrile] | 1 to 10 | B++ | 
16 | NS(=O)(=O)c1ccc(-c2ncc(C(F)(F)F)c(Nc3cc(C4CC4)[nH]n3)n2)s1 [Compound 159, 5-(4-(5-cyclopropyl-1H-pyrazol-3-ylamino)-5-(trifluoromethyl)pyrimidin-2-yl)thiophene-2-sulfonamide] | 100 to 500 | B+ | 
17 | CC(C)(C)NS(=O)(=O)c1ccc(-c2ncc(CCO)c(Nc3cc(C4CC4)[nH]n3)n2)s1 [Compound 228, 5-[4-[(5-cyclopropyl-1H-pyrazol-3-yl)amino]-5-(2-hydroxyethyl)pyrimidin-2-yl]-N-tert-butyl-thiophene-2-sulfonamide] |  | B+ | 
18 | NS(=O)(=O)c1cccc(-c2nccc(Nc3cc(C4CC4)[nH]n3)n2)c1 [Compound 28, 3-[4-[(5-cyclopropyl-1H-pyrazol-3-yl)amino]pyrimidin-2-yl]benzenesulfonamide] | 10 to 50 |  | 
19 | CC(=O)NCCNS(=O)(=O)c1ccc(-c2ncc(Cl)c(Nc3cc(C4CC4)[nH]n3)n2)s1 [Compound 118, N-(2-(5-(5-chloro-4-(5-cyclopropyl-1H-pyrazol-3-ylamino)pyrimidin-2-yl)thiophene-2-sulfonamido)ethyl)acetamide] | 10 to 50 |  | 
20 | CC(C)(C)NS(=O)(=O)c1ccc(-c2ccc([N+](=O)[O-])c(Nc3cc(C4CC4)n[nH]3)n2)s1 [Compound 274, 5-[6-[(5-cyclopropyl-2H-pyrazol-3-yl)amino]-5-nitro-2-pyridyl]-N-tert-butyl-thiophene-2-sulfonamide] | 50 to 100 |  | 
21 | CC1CC1c1cc(Nc2nc(-c3ccc(S(=O)(=O)NC(C)(C)C)s3)ncc2Cl)n[nH]1 (centres unmarked) [Compound 321, 5-[5-chloro-4-[[5-(2-methylcyclopropyl)-1H-pyrazol-3-yl]amino]-pyrimidin-2-yl]-N-tert-butyl-thiophene-2-sulfonamide] | 100 to 500 |  | 
22 | NS(=O)(=O)c1ccc(-c2nc(Nc3n[nH]c(C4CC4)c3Cl)cc(C(=O)O)n2)s1 [Compound 292, 6-[(4-chloro-5-cyclopropyl-1H-pyrazol-3-yl)amino]-2-(5-sulfamoyl-2-thienyl)-pyrimidine-4-carboxylic acid] | > 4000 |  | 
23 | NC(=O)c1ccc(-c2ncc(Cl)c(Nc3cc(C4CC4)[nH]n3)n2)s1 [compound 131, 5-(5-Chloro-4-(5-cyclopropyl-1H-pyrazol-3-ylamino)pyrimidin-2-yl)thiophene-2-carboxamide] | 1 to 10 |  | 
24 | NS(=O)(=O)c1ccc(-c2nccc(Nc3cc(C4CC4)[nH]n3)n2)s1 [Compound 50, 5-(4-(5-cyclopropyl-1H-pyrazol-3-ylamino)pyrimidin-2-yl)thiophene-2-sulfonamide] | 1 to 10 |  | 
25 | CC(C)(C)NS(=O)(=O)c1ccc(-c2ncc(/C=C/CO)c(Nc3cc(C4CC4)[nH]n3)n2)s1 [Compound 218, (E)-N-tert-butyl-5-(4-(5-cyclopropyl-1H-pyrazol-3-ylamino)-5-(3-hydroxyprop-1-enyl)pyrimidin-2-yl)thiophene-2-sulfonamide] | 50 to 100 |  | 
